The species named for experiment [1] is Homo sapiens. In words: Selectivity ratio for PPRalpha over PPRgamma.
The species entered for experiment [2] is Homo sapiens. In words: Selectivity ratio for PPRbeta/delta over PPRgamma.
Experiment [3] has as its target T1, Peroxisome proliferator-activated receptor gamma (Homo sapiens, UniProt P37231).
T1 sequence (P37231 whole entry): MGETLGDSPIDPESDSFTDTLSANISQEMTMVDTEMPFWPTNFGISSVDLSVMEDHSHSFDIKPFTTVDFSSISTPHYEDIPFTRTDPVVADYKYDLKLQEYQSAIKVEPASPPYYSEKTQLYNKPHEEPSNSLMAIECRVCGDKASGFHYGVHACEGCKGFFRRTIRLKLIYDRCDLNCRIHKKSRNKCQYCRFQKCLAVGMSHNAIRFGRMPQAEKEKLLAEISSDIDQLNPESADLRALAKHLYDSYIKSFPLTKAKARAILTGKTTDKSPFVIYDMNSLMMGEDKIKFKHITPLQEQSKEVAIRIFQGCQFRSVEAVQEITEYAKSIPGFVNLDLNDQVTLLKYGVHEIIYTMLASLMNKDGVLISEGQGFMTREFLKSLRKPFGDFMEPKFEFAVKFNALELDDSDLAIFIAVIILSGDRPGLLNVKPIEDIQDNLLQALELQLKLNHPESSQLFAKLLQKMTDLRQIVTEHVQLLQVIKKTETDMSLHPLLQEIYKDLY
In words: Binding affinity to PPARgamma.

The species entered for experiment [4] is Homo sapiens. In words: Selectivity ratio for human PPRalpha over human PPRbeta/delta.
For experiment [5], the species on record is Mus musculus. In words: Selectivity ratio for mouse PPRgamma to mouse PPRbeta/delta.
The species named for experiment [6] is Homo sapiens. The experiment can be described thus: Selectivity ratio for human PPRgamma over human PPRbeta/delta.
For experiment [7], the species on record is Mus musculus. The experiment can be described thus: Selectivity ratio for mouse PPRalpha over mouse PPRbeta/delta.
The target of experiment [8] is T2, Peroxisome proliferator-activated receptor alpha (Homo sapiens, UniProt Q07869).
T2 sequence (Q07869 whole entry): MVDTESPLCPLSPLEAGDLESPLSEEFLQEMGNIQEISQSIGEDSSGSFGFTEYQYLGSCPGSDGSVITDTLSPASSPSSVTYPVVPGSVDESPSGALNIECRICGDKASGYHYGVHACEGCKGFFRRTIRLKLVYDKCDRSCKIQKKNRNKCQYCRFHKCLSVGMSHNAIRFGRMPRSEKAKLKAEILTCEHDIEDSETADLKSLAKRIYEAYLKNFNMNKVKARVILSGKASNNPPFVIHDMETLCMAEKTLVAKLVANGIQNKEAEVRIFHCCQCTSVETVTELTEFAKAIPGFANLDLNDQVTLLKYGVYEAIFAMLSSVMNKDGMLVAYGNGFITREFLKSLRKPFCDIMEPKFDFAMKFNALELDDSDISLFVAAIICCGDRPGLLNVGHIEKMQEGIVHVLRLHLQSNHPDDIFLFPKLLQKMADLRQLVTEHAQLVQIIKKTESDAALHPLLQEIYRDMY
In words: Agonist activity at PPARalpha. The class given is functional.

SMILES strings stand for the structures.

`CN(CCOc1ccc(C[C@H](Nc2ccccc2C(=O)c2ccccc2)C(=O)O)cc1)c1ccccn1`: the Selectivity ratio in the experiment filed under Homo sapiens [1] and in the experiment listed under Homo sapiens [2] was over 1000 each time. `CCCCC/C=C/C=C1/C(=O)C=C[C@@H]1C/C=C\CCCC(=O)O` had a Kd in experiment [3] of 2000 nM. For `CCCc1c(OCCCOc2ccc(OCC(=O)O)cc2)ccc(C(C)=O)c1O`, the Selectivity ratio in the experiment listed under Homo sapiens [4], in the experiment filed under Mus musculus [5], in the experiment listed under Homo sapiens [6] and in the experiment filed under Mus musculus [7] was over 100 throughout. Regarding `CC(C)(Oc1ccc(CCOc2ccc(/C=C/C(=O)c3cc(Cl)ccc3O)cc2)cc1)C(=O)O`, in experiment [8], a half-maximal response (EC50) required 60 nM. For the compound `CCCCC/C=C\C=C\C(O)CCCCCCCC(=O)O` (stereo not drawn), the Kd in experiment [3] was 2000 nM. For the compound `COC(=O)c1ccccc1N[C@@H](Cc1ccc(OCCc2nc(-c3ccccc3)oc2C)cc1)C(=O)O`, the Selectivity ratio in the experiment filed under Homo sapiens [1] and in the experiment listed under Homo sapiens [2] was over 1000 in each case. On to `CCCCCC(O)/C=C\C=C/CCCCCCCC(=O)O` (stereo not drawn), for which the Kd in experiment [3] came out at 2000 nM. Still for that read-out and setting: next, `CC/C=C\C/C=C\C/C=C\C/C=C\C/C=C\CCCC(=O)O` [ICOSAPENT]: 2000 nM.

These data come from ChEMBL document CHEMBL2069220, “Targeting peroxisome proliferator-activated receptors (PPARs): development of modulators” (J Med Chem, 2012).
